These results are taken from patent publication US7709503B2, “Pyrrol derivatives with antibacterial activity” (AstraZeneca AB, priority 2003, dated 2010).

The test system of one series is Streptococcus pneumoniae. Kind of series: Bacterial susceptibility testing in liquid media (Minimum Inhibitory Concentration). It is filed as cell-based. As to conditions: against Streptococcus pneumoniae, 37 degrees C., 24 hrs, lowest concentration able to reduce growth by 80% or more. As for the experimental part: Compounds were tested for antimicrobial activity by susceptibility testing in liquid media. Compounds were dissolved in dimethylsulfoxide and tested in 10 doubling dilutions in the susceptibility assays. The organisms used in the assay were grown overnight on suitable agar media and then suspended in a liquid medium appropriate for the growth of the organism. The suspension was a 0.5 McFarland and a further 1 in 10 dilution was made into the same liquid medium to prepare the final organism suspension in 100 μL. Plates were incubated under appropriate conditions at 37 degrees C. for 24 hrs prior to reading. The Minimum Inhibitory Concentration was determined as the lowest drug concentration able to reduce growth by 80% or more.

≈ marks a conversion by molar mass, not a printed value.

The term MIC denotes the lowest concentration found to suppress growth. A higher MIC goes with weaker potency. `Cc1[nH]c(C(=O)NC2CCN(c3nc(C#N)cs3)CC2)cc1Br` [Example 130, 4-Bromo-N-[1-(4-cyano-1,3-thiazol-2-yl)piperidin-4-yl]-5-methyl-1H-pyrrole-2-carboxamide]: in the series on Streptococcus pneumoniae, the minimum inhibitory concentration (MIC) was determined as 2 µg/mL (≈ 5.07 µM).
By melting point is commonly meant the temperature, or range, at which the solid turns liquid. Consider `Cc1[nH]c(C(=O)NC2CCN(c3cc(C(=O)O)nc4ccccc34)CC2)c(Cl)c1Cl` [Example 225, 4-(4-{[(3,4-Dichloro-5-methyl-1H-pyrrol-2-yl)carbonyl]amino}piperidin-1-yl)quinoline-2-carboxylic acid], for which the melting point was 254 to 256 °C.
`Cc1[nH]c(C(=O)NC2CCN(c3cc(C(=O)O)on3)CC2)c(Cl)c1Cl` [Example 226, 3-(4-{[(3,4-Dichloro-5-methyl-1H-pyrrol-2-yl)carbonyl]amino}piperidin-1-yl)isoxazole-5-carboxylic acid] gave a melting point of 232 to 234 °C.
